Where no end group is shown, it is not given here.

The subject of one assay is U87MG hip xenografts. In words: Therapeutic efficacy study, once weekly for four weeks, tumors implanted with Matrigel. Type of assay: in vivo, Nu/Nu mice. To be noted: once weekly for 4 weeks. The method, then: To further investigate each compound, several changes were made to the experimental design. Because of the KDC's rapid systemic clearance, a significant portion of the injected dose is likely lost and the ˜0.6 mg/kg dose was therefore increased substantially. Because dosages for chemotherapeutics are conventionally determined as mass of chemotherapeutic per patient body surface area, a more clinically relevant comparison of equal mass was selected over an equimolar comparison. Next, a once-per-week dosing regimen was selected to coincide with realistic clinical dosing considerations. Finally, tumors were implanted with Matrigel matrix to increase tumor growth and with only 2.5×10^6 cells per injection to decrease initial tumor necrosis. Mice bearing U87MG hip xenografts were equally distributed into the following treatment groups with intravenous injections given once weekly for 4 weeks: KDC, KFDC, KADC, unconjugated proteins, or a PBS control. Each drug conjugate was also evaluated at a low dose and a high dose.
For tumor cell implantation, female Nu/Nu mice (Charles River Laboratory) were anesthetized with 2.5% isoflurane by inhalation with a flow rate of 1 L/min. A volume of 200 μL of 50/50 PBS/Matrigel (Corning), containing 2.5×10^6 U87MG cells, was injected subcutaneously into the right flank. Tumors were allowed to grow for 7 days until reaching a size of approximately 35 mm^2. For therapeutic efficacy studies, mice were binned into experimental groups to ensure equivalent average tumor sizes and starting body weights across all groups.
Mice bearing U87MG flank xenografts, as described above, were injected intravenously with PBS, KDC, KFDC, KADC, or controls proteins. Treatments were administered once per week for four weeks. Tumors were measured three times per week using digital calipers and animal weights were recorded on each dosing day to monitor for potential weight loss as a measure of compound toxicity. Tumor area was calculated as the longest axis of the tumor multiplied by the perpendicular axis. Euthanasia criteria were defined as a tumor area greater than 150 mm^2 or a loss of 20% body weight.

The test system of assay [1] is U87MG cells. In words: Indirect (competition) binding assay displacing Alexa Fluor 488-labeled knottin. To be noted: competing off 1 nM AF488-2.5F on U87MG cells. The method, then:
(§1) The binding affinity of the constructs described in Example 1 were measured using U87MG glioblastoma cells. Drug-free protein affinities were measured directly using Alexa Fluor 488-conjugaed proteins and drug conjugates were measured via a competition binding assay displacing Alexa Fluor 488-labeled K. All constructs tested bound to U87MG cells with low-nanomolar affinity (FIG. 9A-B).
(§2) U87MG cells were detached using Enzyme-Free Cell Dissociation Buffer (Gibco). Next, 4×10^4 cells were incubated with 1 nM of Alexa Fluor 488 labeled knottin as a competitor and varying concentrations (0.01-500 nM) of KDC, KFDC, or KADC in IBB for 3 h at 4° C. to minimize internalization. Cells were pelleted and washed twice with 800 μL of PBSA (phosphate buffered saline containing 0.1% bovine serum albumin) and the fluorescence of remaining surface-bound protein was measured by flow cytometry using a Guava EasyCyte 8HT instrument (EMD Millipore). Resulting data were evaluated using FlowJo software (TreeStar Inc) and equilibrium dissociation constants (Kd) were determined using Prism software (GraphPad). Error bars represent the standard deviation of experiments performed in triplicate.

Assay [2] has as its system U87MG cells. In words: Direct binding of Alexa Fluor 488-labeled proteins to U87MG cells (flow cytometry). To be noted: direct binding of AF488-labeled protein to U87MG cells, 3 h at 4° C. The method, then: as §1
as §2, with “varying concentrations (0.01-200 nM)” for “1 nM”, “proteins in Integrin Binding Buffer (IBB; 25 mM Tris pH 7.4, 150 mM NaCl, 2 mM CaCl2), 1 mM MgCl2, 1 mM MnCl2,” for “knottin as a competitor”, “0.1% bovine serum albumin (BSA))” for “varying concentrations (0.01-500 nM) of KDC, KFDC, or KADC in IBB”

For assay [3], the system named is U87MG cells. Briefly: Measurement of cellular internalization of AF488-labeled proteins. The conditions noted are these: AF488-labeled protein, 37° C., 4 h, surface signal quenched. It is filed as cell-based. The method, then:
The cleavage of the Val-Cit-PAB linker and the subsequent release and mechanism of action of MMAE are dependent upon intracellular delivery. Thus, it was important to validate that each construct internalized efficiently. Internalization was measured by incubating Alexa Fluor 488-conjugated proteins with cells at 37° C. After a 4 h incubation, surface-bound protein was quenched using an anti-AF488 antibody, that binds any exposed fluorophores.
U87MG cells were seeded in 24-well plates (Corning) at a density of 5×10^4 cells per well. After allowing cells to settle for >4 h, media was replaced with fresh media containing 200 nM of Alexa Fluor 488-labeled proteins and supplemented with 1 mM MnCl2. Cells were then incubated at 37° C. for 4 h. Cells were washed with 500 μL of PBS and detached using 20 μL of 0.05% trypsin/EDTA. After neutralizing trypsin and transferring each well into an Eppendorf tube, cells were washed with 800 μL of cold PBSA. Next, cells were pelleted and resuspended on ice in 50 μL of a 1:200 dilution of anti-Alexa Fluor 488 antibody (Invitrogen) to quench surface-bound protein. Cells were washed again with 800 μL of PBSA and the fluorescence of internalized protein was measured by flow cytometry as described above.

In assay [4] the target is integrin receptors on U87MG glioblastoma cells. Briefly: flow cytometry, direct binding of AF488-labelled protein to U87MG cells, 3 h at 4 C. Background: In flow cytometry, cells or beads pass a laser one at a time.

On to “KFc: EETI 2.5F genetically fused to a human IgG1 Fc domain (GCPRPRGDNPPLTCSQDSDCLAGCVCGPNGFCG; ends and bridges not checked; also: fused to human IgG1 Fc domain (dimerising))”, for which the “tumor growth with unconjugated protein” value in the assay with U87MG hip xenografts is “indistinguishable from PBS control mice”. In addition, in the assay on U87MG cells [1], the Ki amounted to 1.2 nM. In addition, the Kd in the assay with U87MG cells [2] turned out to be 2.5 nM. Further, the internalization result in the assay with U87MG cells [3] is “from least to greatest, K, KFc, then KAb”.
The molecule “knottin-Fc fusion (KFc): EETI 2.5F genetically fused to a human IgG1 Fc domain, Alexa Fluor 488-labeled” showed a Kd in assay [4] of 2.5 nM.

B1: knottin-Ab fusion (KAb): EETI 2.5F genetically fused to the N-terminus of a full-length human IgG1 antibody against an irrelevant target (anti-FITC or … (peptide, part only; not given: carrier IgG1 antibody chains, part only)
chain, part: GCPRPRGDNPPLTCSQDSDCLAGCVCGPNGFCG
modifications: cysteine pairing not given here; also: genetic fusion to N-terminus of full-length human IgG1 antibody, Alexa Fluor 488 label, site not given here
Molecule B1 had a Kd in assay [4] of 2.3 nM.

The term Ki denotes a measure of affinity in units of concentration, obtained from inhibition or displacement. A higher Ki goes with lower affinity. As usually defined, the Kd is the constant that tells how readily two partners part at equilibrium.

The values above are taken from patent US20220211861A1, “DRUG CONJUGATES AND METHODS OF USING SAME” (The Board of Trustees of the Leland Staford Junior …, priority 2019, published 2022).
